Values joined by “and” are separate entries in the source; they are usually repeats but may differ in a detail not shown here. Equal entries are not always repeated.
Test system: hAAT
Test: Serum hAAT protein levels in PiZ mice (ELISA)
Assay type: in vivo, human (expressed in PiZ mice)
Settings: for Normalized serum hAAT levels / Serum hAAT normalized to Day 1 and control / Serum hAAT normalized to day 1: PiZ mice; for Normalized serum hAAT levels: normalized to day 1 and saline control; for Serum hAAT normalized to Day 1 and control: single IV 4 mg/kg + 8 mg/kg MLP delivery polymer; for Serum hAAT normalized to day 1: single IV 6 mg/kg with 6 mg/kg MLP delivery polymer; for Serum hAAT normalized to day 1 and controls: female PiZ mice, single IV 8 mg/kg + 8 mg/kg MLP delivery polymer
Protocol: Human AAT protein levels in serum were monitored for 29 days. At the indicated times, blood samples were collected and assayed for hAAT by ELISA. Day 1 samples were collected prior to trigger administration. For mRNA analysis, 3-4 mice were euthanized at each of days 3, 8, 15, 22, and 29. For euthanized mice, cardiac stick were performed for serum isolation for AAT ELISA (200 μl serum). Half of the left lateral liver lobe was collected and snap-freeze in liquid nitrogen for RNA isolation. The remainder of the left lobes were embedded into paraffin blocks for PAS-D staining with hematoxylin as counter-stain. Serum hAAT levels in mice given AAT Duplex Pair SEQ ID NO: 5/6 were 95% reduced on day 8 and remained reduced to day 29, at which time they were 79% reduced. Mice given AAT Duplex Pair SEQ ID NO: 5/6 were euthanized at either day 3, 8, 15, 22 or 29. Mice given saline or Luciferase siRNA control (SEQ ID 7/8) were euthanized on day 29. Levels of hAAT mRNA in the livers were measured by RT-qPCR. The hAAT mRNA in mice given AAT Duplex Pair SEQ ID NO: 5/6 was reduced by 97% on day 3 and remained reduced on day 29, at which time levels were 56% reduced. The size of the globules and the area of the liver covered by globules was digitally quantitated from liver specimens stained with PAS-D. Duplex Pair SEQ ID NO: 5/6 treated mice had 70% smaller globules at day 15 and 62% smaller globules at day 29. The area of the liver covered with globules was 83% reduced on day 15 and 72% reduced on day 29 (FIG. 5).

With “Duplex Pair SEQ ID NO: 5/6: double-stranded AAT RNAi agent: modified antisense strand SEQ ID NO: 5 annealed to Chol-TEG sense strand SEQ ID NO: 6 (antisense TGGAACUUGGUGAUGAUAUTT; sense UAUAUAUCAUCACCAAGUUCCAT; Chol-TEG on sense strand; chemical modifications; antisense strand of dsRNA; modified_base 7 /mod_base = “2′-3′ seco corresponding nucleotide”; modified_base 2,4,6,8,10,12,14,16,18 /mod_base = “2′-deoxy-2′-fluoro corresponding nucleoside”; modified_base 3,5,9,11,13,15,17,19 /mod_base = “2′-O-methyl corresponding nucleoside”; modified_base 21 /mod_base = “5′-phosphorothioate corresponding nucleotide”; sense strand of dsRNA; modified_base 2 /mod_base = “2′-hydroxy corresponding nucleoside”; modified_base 4,6,8,10,12,14,16,18,20,22 /mod_base = “2′-deoxy-2′-fluoro corresponding nucleoside”; …)” the “Normalized serum hAAT levels” value (single IV 4 mg/kg + 4 mg/kg MLP, day 1) was 1.00, the “Normalized serum hAAT levels” value (single IV 4 mg/kg + 4 mg/kg MLP, day 8) was 0.03 ± 0.01 and the “Normalized serum hAAT levels” value (single IV 4 mg/kg + 4 mg/kg MLP, day 15) was 0.23 ± 0.04. For the same substance, the “Normalized serum hAAT levels” value (single IV 4 mg/kg + 4 mg/kg MLP, day 20) was 0.32 ± 0.05, the “Normalized serum hAAT levels” value (single IV 4 mg/kg + 4 mg/kg MLP, day 29) was 0.66 ± 0.10 and the “Normalized serum hAAT levels” value (single IV 4 mg/kg + 4 mg/kg MLP, day 36) was 0.83 ± 0.06. The “Normalized serum hAAT levels” value (single IV 4 mg/kg + 4 mg/kg MLP, day −7) was 0.68 ± 0.07, the “Serum hAAT normalized to Day 1 and control” value (Day 1) was 1.00 and the “Serum hAAT normalized to Day 1 and control” value (Day 3) was 0.20 ± 0.04. For the same substance, the “Serum hAAT normalized to Day 1 and control” value (Day 8) was 0.05 ± 0.01, the “Serum hAAT normalized to Day 1 and control” value (Day 15) was 0.09 ± 0.01 and the “Serum hAAT normalized to Day 1 and control” value (Day 22) was 0.28 ± 0.05. For the same substance, the “Serum hAAT normalized to Day 1 and control” value (Day 29) was 0.35 ± 0.05, the “Serum hAAT normalized to Day 1 and control” value (Day 35) was 0.81 ± 0.12 and the “Serum hAAT normalized to Day 1 and control” value (Day −3) was 0.73 ± 0.13. For the same substance, the “Serum hAAT normalized to day 1” value (day 1 (reference)) was 1.00, the “Serum hAAT normalized to day 1” value (day 3, listed as AAT RNAi agent (SEQ ID NO: 5/6), 6 mg/kg) was 0.326 ± 0.021 and 0.274 ± 0.072 and the “Serum hAAT normalized to day 1” value (day 10) was 0.105 ± 0.033. The “Normalized serum hAAT levels” value (single IV 8 mg/kg + 2 mg/kg MLP, day 1) was 1.00, the “Normalized serum hAAT levels” value (single IV 8 mg/kg + 2 mg/kg MLP, day 8) was 0.09 ± 0.05 and the “Normalized serum hAAT levels” value (single IV 8 mg/kg + 2 mg/kg MLP, day 15) was 0.59 ± 0.16. The “Normalized serum hAAT levels” value (single IV 8 mg/kg + 2 mg/kg MLP, day 20) was 0.74 ± 0.10, the “Normalized serum hAAT levels” value (single IV 8 mg/kg + 2 mg/kg MLP, day 29) was 0.87 ± 0.20 and the “Normalized serum hAAT levels” value (single IV 8 mg/kg + 2 mg/kg MLP, day 36) was 0.74 ± 0.08. For the same substance, the “Normalized serum hAAT levels” value (single IV 8 mg/kg + 2 mg/kg MLP, day −7) was 0.70 ± 0.15, the “Normalized serum hAAT levels” value (single IV 8 mg/kg + 4 mg/kg MLP, day 1) was 1.00 and the “Normalized serum hAAT levels” value (single IV 8 mg/kg + 4 mg/kg MLP, day 8) was 0.04 ± 0.02. The “Normalized serum hAAT levels” value (single IV 8 mg/kg + 4 mg/kg MLP, day 15) was 0.27 ± 0.05, the “Normalized serum hAAT levels” value (single IV 8 mg/kg + 4 mg/kg MLP, day 20) was 0.35 ± 0.05 and the “Normalized serum hAAT levels” value (single IV 8 mg/kg + 4 mg/kg MLP, day 29) was 0.80 ± 0.20. The “Normalized serum hAAT levels” value (single IV 8 mg/kg + 4 mg/kg MLP, day 36) was 1.00 ± 0.20, the “Normalized serum hAAT levels” value (single IV 8 mg/kg + 4 mg/kg MLP, day −7) was 0.70 ± 0.24 and the “Normalized serum hAAT levels” value (single IV 8 mg/kg + 8 mg/kg MLP, day 1) was 1.00. The “Normalized serum hAAT levels” value (single IV 8 mg/kg + 8 mg/kg MLP, day 8) was 0.02 ± 0.00, the “Normalized serum hAAT levels” value (single IV 8 mg/kg + 8 mg/kg MLP, day 15) was 0.13 ± 0.06 and the “Normalized serum hAAT levels” value (single IV 8 mg/kg + 8 mg/kg MLP, day 20) was 0.16 ± 0.04. For the same substance, the “Normalized serum hAAT levels” value (single IV 8 mg/kg + 8 mg/kg MLP, day 29) was 0.43 ± 0.08, the “Normalized serum hAAT levels” value (single IV 8 mg/kg + 8 mg/kg MLP, day 36) was 0.78 ± 0.23 and the “Normalized serum hAAT levels” value (single IV 8 mg/kg + 8 mg/kg MLP, day −7) was 0.89 ± 0.54. For the same substance, the “Serum hAAT normalized to day 1 and controls” value (mice euthanized Day 3, Day 1) was 1.000, the “Serum hAAT normalized to day 1 and controls” value (mice euthanized Day 3, Day 3) was 0.255 ± 0.040 and the “Serum hAAT normalized to day 1 and controls” value (mice euthanized Day 3, Day −2) was 1.068 ± 0.070. The “Serum hAAT normalized to day 1 and controls” value (mice euthanized Day 8, Day 1) was 1.000, the “Serum hAAT normalized to day 1 and controls” value (mice euthanized Day 8, Day 3) was 0.184 ± 0.025 and the “Serum hAAT normalized to day 1 and controls” value (mice euthanized Day 8, Day 8) was 0.054 ± 0.004. The “Serum hAAT normalized to day 1 and controls” value (mice euthanized Day 8, Day −2) was 0.895 ± 0.129, the “Serum hAAT normalized to day 1 and controls” value (mice euthanized Day 15, Day 1) was 1.000 and the “Serum hAAT normalized to day 1 and controls” value (mice euthanized Day 15, Day 3) was 0.243 ± 0.060. For the same substance, the “Serum hAAT normalized to day 1 and controls” value (mice euthanized Day 15, Day 8) was 0.066 ± 0.023, the “Serum hAAT normalized to day 1 and controls” value (mice euthanized Day 15, Day 15) was 0.095 ± 0.063 and the “Serum hAAT normalized to day 1 and controls” value (mice euthanized Day 15, Day −2) was 0.66 ± 0.121. The “Serum hAAT normalized to day 1 and controls” value (mice euthanized Day 22, Day 1) was 1.000, the “Serum hAAT normalized to day 1 and controls” value (mice euthanized Day 22, Day 3) was 0.202 ± 0.054 and the “Serum hAAT normalized to day 1 and controls” value (mice euthanized Day 22, Day 8) was 0.044 ± 0.010. For the same substance, the “Serum hAAT normalized to day 1 and controls” value (mice euthanized Day 22, Day 15) was 0.056 ± 0.011, the “Serum hAAT normalized to day 1 and controls” value (mice euthanized Day 22, Day 22) was 0.100 ± 0.039 and the “Serum hAAT normalized to day 1 and controls” value (mice euthanized Day 22, Day −2) was 0.779 ± 0.280. For the same substance, the “Serum hAAT normalized to day 1 and controls” value (mice euthanized Day 29, Day 1) was 1.000, the “Serum hAAT normalized to day 1 and controls” value (mice euthanized Day 29, Day 3) was 0.238 ± 0.062 and the “Serum hAAT normalized to day 1 and controls” value (mice euthanized Day 29, Day 8) was 0.052 ± 0.015. For the same substance, the “Serum hAAT normalized to day 1 and controls” value (mice euthanized Day 29, Day 15) was 0.057 ± 0.016, the “Serum hAAT normalized to day 1 and controls” value (mice euthanized Day 29, Day 22) was 0.103 ± 0.032 and the “Serum hAAT normalized to day 1 and controls” value (mice euthanized Day 29, Day 29) was 0.209 ± 0.071. The “Serum hAAT normalized to day 1 and controls” value (mice euthanized Day 29, Day −2) was 0.653 ± 0.102.
